Laboratory results: ChEMBL document CHEMBL5380862, “Unsymmetrical Phosphodiesters as GPR84 Antagonists with High Blood Exposure for the Treatment of Lung Inflammation” (J Med Chem, 2023)
Activity calls are given as the source filed them. The rule behind the calls is not given here.

Key:
[1] = biological target: G-protein coupled receptor 84 (Homo sapiens, UniProt Q9NQS5); test: Antagonist activity at human GPR84 expressed in HEK293 cells co-expressing Galpha16 assessed as inhibition of 6-OAU induced calcium response incubated for 10 mins by calcium mobilization assay; format: functional, cell-based
G-protein coupled receptor 84, sequence (Q9NQS5 whole entry): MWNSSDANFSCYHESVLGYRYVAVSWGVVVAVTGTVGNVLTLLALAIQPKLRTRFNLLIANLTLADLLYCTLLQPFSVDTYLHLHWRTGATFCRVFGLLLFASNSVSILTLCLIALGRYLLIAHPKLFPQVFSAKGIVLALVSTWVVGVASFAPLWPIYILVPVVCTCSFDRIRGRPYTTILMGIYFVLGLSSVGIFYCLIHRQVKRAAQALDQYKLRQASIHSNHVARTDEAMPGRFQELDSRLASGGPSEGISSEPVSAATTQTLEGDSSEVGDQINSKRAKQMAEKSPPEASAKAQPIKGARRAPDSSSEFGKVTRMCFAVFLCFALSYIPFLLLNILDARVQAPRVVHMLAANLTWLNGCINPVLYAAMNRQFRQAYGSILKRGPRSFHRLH

Mus musculus [2] = test: Protection against C57BL/6 mouse model of LPS-induced acute […] injury assessed as reduction in CD45positive CD11bpositive Ly6Gpositive neutrophils in BALF at 100 mg/kg, po pre-treated with compound for 30 mins followed by LPS-stimulation for 12 hrs and measured 24 hrs post LPS stimulation by flow cytometric analysis; format: functional, organism-based; settings: time 24.5 hrs
Mus musculus [3] = test: Protection against C57BL/6 mouse model of LPS-induced acute […] injury assessed as amelioration of pulmonary congestion at 100 mg/kg, po pre-treated with compound for 30 mins followed by LPS-stimulation for 12 hrs and measured 24 hrs post LPS stimulation by H&E staining based analysis; format: functional, organism-based; settings: time 24.5 hrs
Mus musculus [4] = test: Protection against C57BL/6 mouse model of LPS-induced acute […] injury assessed as amelioration of thickening of alveolar wall at 100 mg/kg, po pre-treated with compound for 30 mins followed by LPS-stimulation for 12 hrs and measured 24 hrs post LPS stimulation by H&E staining based analysis; format: functional, organism-based; settings: time 24.5 hrs
Mus musculus [5] = test: (§1) Protection against C57BL/6 mouse model of LPS-induced acute […] injury assessed as reduction in CD45positive immune cells in BALF at 100 mg/kg, po pre-treated with compound for 30 mins followed by LPS-stimulation for 12 hrs and measured 24 hrs post LPS stimulation by flow cytometric analysis; format: functional, organism-based; settings: time 24.5 hrs
Mus musculus [6] = test: Protection against C57BL/6 mouse model of LPS-induced acute […] injury assessed as reduction in total cells in BALF at 100 mg/kg, po pre-treated with compound for 30 mins followed by LPS-stimulation for 12 hrs and measured 24 hrs post LPS stimulation by flow cytometric analysis; format: functional, organism-based; settings: time 24.5 hrs
Mus musculus [7] = test: Protection against C57BL/6 mouse model of LPS-induced acute […] injury assessed as amelioration of […] edema at 100 mg/kg, po pre-treated with compound for 30 mins followed by LPS-stimulation for 12 hrs and measured 24 hrs post LPS stimulation by H&E staining based analysis; format: functional, organism-based; settings: time 24.5 hrs
Mus musculus [8] = test: as §1, with “CD11bpositive myeloid” for “immune”; format: functional, organism-based; settings: time 24.5 hrs

Row | Structure (SMILES) | IC50 [1] [nM] | further results
1 | CC/C=C\CCCCOP(=O)(O)OC1=Cc2ccccc2Sc2c(OC)cccc21 | 517 | –
2 | COc1cccc2c1Sc1ccccc1C=C2OP(=O)(O)OC1CC1 | 39500 | –
3 | COc1cccc2c1Sc1ccccc1C=C2OP(=O)(O)OC12CC3CC(C)(CC(C)(C3)C1)C2 | 126 | –
4 | COc1cccc2c1Sc1ccccc1C=C2OP(=O)(O)O[C@@H]1C[C@H](C)CC[C@H]1C(C)C | 68 | –
5 | CCOCCOCCOP(=O)(O)OC1=Cc2ccccc2Sc2c(OC)cccc21 | 21800 | –
6 | CC1(C)[C@@H]2CC[C@@](C)(C2)[C@@H]1OP(=O)(O)OC1=Cc2ccccc2Oc2ccccc21 | 711 | –
7 | CC1(C)[C@@H]2CC[C@@](C)(C2)[C@@H]1OP(=O)(O)OC1=Cc2ccccc2Sc2c(OC(F)(F)F)cccc21 | 12 | –
8 | COc1cccc2c1Sc1ccccc1C=C2OP(=O)(O)Oc1cc(C(C)C)ccc1C | 196 | –
9 | COc1cccc2c1Sc1ccccc1C=C2OP(=O)(O)Oc1cc(C)ccc1C(C)C | 658 | –
10 | COc1cccc2c1Sc1ccccc1C=C2OP(=O)(O)Oc1cccc2ccccc12 | 130 | –
11 | CCCCCCCCCOP(=O)(O)OC1=Cc2ccccc2Sc2c(OC)cccc21 | 194 | –
12 | COc1cccc2c1Sc1ccccc1C=C2OP(=O)(O)OC1C(C)(C)CCCC1(C)C | 110 | –
13 | CCOC(=O)[C@H](CS)NC(C)=O | – | Activity (Mus musculus [2]): Active; Activity (Mus musculus [3]): Active; Activity (Mus musculus [4]): Active; Activity (Mus musculus [5]): Active; Activity (Mus musculus [6]): Active; Activity (Mus musculus [7]): Active; Activity (Mus musculus [8]): Active
14 | COc1cccc2c1Sc1ccccc1C=C2OP(=O)(O)OC12CC3CC(CC(C3)C1)C2 | 340 | –
15 | COc1cccc2c1Sc1ccccc1C=C2OP(=O)(O)OC | 2830 | –
16 | COc1cccc2c1Sc1ccccc1C=C2OP(=O)(O)OC1CCC(C)CC1 (stereo unspecified) | 4010 | –
17 | COc1cccc2c1Sc1ccccc1C=C2OP(=O)(O)O[C@H]1C[C@@H](C)CC[C@@H]1C(C)C | 91 | –
18 | COc1cccc2c1Sc1ccccc1C=C2OP(=O)(O)OC1CCCCC1C (stereo unspecified) | 1730 | –
19 | CC1(C)[C@@H]2CC[C@@](C)(C2)[C@@H]1OP(=O)(O)OC1=Cc2ccccc2Sc2ccccc21 | 166 | –
20 | CC1(C)[C@@H]2CC[C@@](C)(C2)[C@@H]1OP(=O)(O)O[C@@H]1C(C)(C)[C@@H]2CC[C@@]1(C)C2 | 29600 | –
21 | CC1(C)[C@@H]2CC[C@@](C)(C2)[C@@H]1OP(=O)(O)OC1=Cc2c(F)cccc2Sc2ccccc21 | 554 | –
22 | COc1cccc2c1Sc1ccccc1C=C2OP(=O)(O)OC1CCOC1 (stereo unspecified) | 3990 | –
23 | CCCCCCOP(=O)(O)OC1=Cc2ccccc2Sc2c(OC)cccc21 | 325 | –
24 | COc1cccc2c1Sc1ccccc1C=C2OP(=O)(O)Oc1ccc2ccccc2c1 | 609 | –
25 | CCCCCCCCP(=O)(O)OC1=Cc2ccccc2Sc2c(OC)cccc21 | 219 | –
